pEC50: −log10 of the molar value.
Molecular target: T1, hSTING (Homo sapiens, UniProt Q86WV6, G230A/H232R/R293Q/R71H)
T1 construct: host or cells: THP1-Dual KO-IFNAR2 cells
Assay: STING reporter assay (luciferase) in THP1-Dual KO-IFNAR2 cells stimulated with 2′3′cGAMP
Format: cell-based
Details: 15 μM 2′3′cGAMP transfected, 24 h, luciferase reporter activity
Protocol: STING pathway activation by the compounds described herein was measured using THP1-Dual™ cells (KO-IFNAR2).
THP1-Dual™ KO-IFNAR2 Cells (obtained from invivogen) were maintained in RPMI, 10% FCS, 5 ml P/S, 2 mM L-glut, 10 mM Hepes, and 1 mM sodium pyruvate. Compounds were spotted in empty 384 well tissue culture plates (Greiner 781182) by Echo for a final concentration of 0.0017-100 μM. Cells were plated into the TC plates at 40 μL per well, 2×10E6 cells/mL. For activation with STING ligand, 2′3′cGAMP (MW 718.38, obtained from Invivogen), was prepared in Optimem media.
The following solutions were prepared for each 1×384 plate: • Solution A: 2 mL Optimem with one of the following stimuli: • 60 μL of 10 mM 2′3′cGAMP→150 μM stock • Solution B: 2 mL Optimem with 60 μL Lipofectamine 2000→Incubate 5 min at RT
2 mL of solution A and 2 ml Solution B was mixed and incubated for 20 min at room temperature (RT). 20 μL of transfection solution (A+B) was added on top of the plated cells, with a final 2′3′cGAMP concentration of 15 μM. The plates were then centrifuged immediately at 340 g for 1 minute, after which they were incubated at 37° C., 5% CO2, >98% humidity for 24 h. Luciferase reporter activity was then measured. EC50 values were calculated by using standard methods known in the art.
Luciferase reporter assay: 10 μL of supernatant from the assay was transferred to white 384-plate with flat bottom and squared wells. One pouch of QUANTI-Luc™ Plus was dissolved in 25 mL of water. 100 μL of QLC Stabilizer per 25 mL of QUANTI-Luc™ Plus solution was added. 50 μL of QUANTI-Luc™ Plus/QLC solution per well was then added. Luminescence was measured on a Platereader (e.g., Spectramax I3X (Molecular Devices GF3637001)).
Luciferase reporter activity was then measured. EC50 values were calculated by using standard methods known in the art.

T1 sequence (Q86WV6 whole entry R71H/G230A/H232R/R293Q): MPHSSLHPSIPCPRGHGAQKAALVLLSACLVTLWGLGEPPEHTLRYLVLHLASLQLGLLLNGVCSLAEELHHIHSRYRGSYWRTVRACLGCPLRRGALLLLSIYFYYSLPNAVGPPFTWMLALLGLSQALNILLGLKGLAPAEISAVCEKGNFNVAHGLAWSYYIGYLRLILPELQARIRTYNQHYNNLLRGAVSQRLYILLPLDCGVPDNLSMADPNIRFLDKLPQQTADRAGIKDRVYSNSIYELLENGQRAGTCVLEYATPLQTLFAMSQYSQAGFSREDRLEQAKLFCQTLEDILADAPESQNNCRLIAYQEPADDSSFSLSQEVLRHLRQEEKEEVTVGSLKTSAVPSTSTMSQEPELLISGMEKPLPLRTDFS

- pEC50: 6.00 to 6.70
Compound: O=C(CCn1cccn1)Nc1c[nH]c2ccc(-c3cnn(-c4ccc(C(F)(F)F)cc4)c3)cc12 [Compound 143, 3-(1H-pyrazol-1-yl)-N-(5-(1-(4-(trifluoromethyl)phenyl)-1H-pyrazol-4-yl)-1H-indol-3-yl)propanamide]

Source: US20220024906A1, “COMPOUNDS AND COMPOSITIONS FOR TREATING CONDITIONS ASSOCIATED WITH STING ACTIVITY” (IFM Due, Inc., priority 2020, published 2022)
